# Like-named read-outs stand apart in the source and are kept apart here.
# Target: T1, W1145Y-CFTR (Homo sapiens, UniProt P13569, W1145Y)
# T1 construct: expressed in transfected cells; host or cells: CHO cells, pcDNA plasmid
# Assay: Inside-out patch-clamp inhibition of CFTR current by Inh-172
# Type: cell-based
# Settings: for inhibition at 0.5 µM: 500 nM Inh-172; for inhibition at 5 µM: 5000 nM Inh-172; for inhibition at 10 µM: 10000 nM Inh-172
# [1] = read-out: percent inhibition of current, Mean
# [2] = read-out: percent inhibition of current, individual cell
# T1 sequence (P13569 whole entry W1145Y): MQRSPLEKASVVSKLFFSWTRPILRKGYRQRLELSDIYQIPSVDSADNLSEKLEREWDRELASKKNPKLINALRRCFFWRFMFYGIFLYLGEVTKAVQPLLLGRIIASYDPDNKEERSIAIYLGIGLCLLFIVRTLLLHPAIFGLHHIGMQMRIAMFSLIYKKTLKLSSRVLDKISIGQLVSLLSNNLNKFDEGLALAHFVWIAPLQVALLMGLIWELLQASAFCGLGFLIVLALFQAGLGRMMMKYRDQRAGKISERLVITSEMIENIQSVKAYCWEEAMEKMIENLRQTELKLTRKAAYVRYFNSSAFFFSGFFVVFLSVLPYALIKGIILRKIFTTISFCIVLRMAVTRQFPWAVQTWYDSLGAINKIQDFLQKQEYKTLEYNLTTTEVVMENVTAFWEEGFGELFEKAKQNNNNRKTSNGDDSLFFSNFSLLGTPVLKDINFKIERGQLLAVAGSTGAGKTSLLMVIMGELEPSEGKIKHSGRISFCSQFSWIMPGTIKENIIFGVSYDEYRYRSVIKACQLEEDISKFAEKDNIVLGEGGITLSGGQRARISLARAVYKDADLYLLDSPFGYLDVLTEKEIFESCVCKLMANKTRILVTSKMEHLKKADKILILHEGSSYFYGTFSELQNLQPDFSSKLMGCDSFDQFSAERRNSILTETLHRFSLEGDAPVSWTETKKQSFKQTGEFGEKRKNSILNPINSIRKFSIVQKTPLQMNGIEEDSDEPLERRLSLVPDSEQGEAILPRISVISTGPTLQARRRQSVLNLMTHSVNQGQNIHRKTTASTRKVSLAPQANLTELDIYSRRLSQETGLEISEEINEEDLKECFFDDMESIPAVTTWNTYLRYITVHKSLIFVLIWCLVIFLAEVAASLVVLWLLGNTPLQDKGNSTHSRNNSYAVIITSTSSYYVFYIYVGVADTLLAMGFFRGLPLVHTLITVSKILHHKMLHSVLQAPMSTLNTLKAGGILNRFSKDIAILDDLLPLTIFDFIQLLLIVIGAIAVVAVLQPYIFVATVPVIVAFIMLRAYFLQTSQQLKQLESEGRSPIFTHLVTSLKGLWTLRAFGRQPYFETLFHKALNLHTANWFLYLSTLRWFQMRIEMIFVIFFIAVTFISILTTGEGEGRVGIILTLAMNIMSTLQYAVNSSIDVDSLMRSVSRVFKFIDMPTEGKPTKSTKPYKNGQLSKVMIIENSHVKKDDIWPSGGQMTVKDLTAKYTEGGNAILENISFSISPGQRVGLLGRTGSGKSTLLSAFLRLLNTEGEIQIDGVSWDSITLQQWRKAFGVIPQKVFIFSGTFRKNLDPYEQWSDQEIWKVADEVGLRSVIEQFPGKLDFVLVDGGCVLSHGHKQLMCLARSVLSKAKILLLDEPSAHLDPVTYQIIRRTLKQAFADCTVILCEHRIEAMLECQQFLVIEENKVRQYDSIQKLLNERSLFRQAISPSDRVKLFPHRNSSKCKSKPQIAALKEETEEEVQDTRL
smiles,measurement,setting,value
"O=C(O)c1ccc(/C=C2\SC(=S)N(c3cccc(C(F)(F)F)c3)C2=O)cc1 [Inh-172, CFTRinh-172]",inhibition at 0.1 µM,"100 nM Inh-172, read-out: percent inhibition of current, Mean",10.8%
same,inhibition at 0.5 µM,[1],38%
same,inhibition at 0.5 µM,[2],29%
same,inhibition at 1 µM,"1000 nM Inh-172, read-out: percent inhibition of current, Mean",54%
same,inhibition at 5 µM,[1],82%
same,inhibition at 5 µM,[2],77%
same,inhibition at 10 µM,[1],91.4%
same,inhibition at 10 µM,[2],88%
same,Hill Coefficient,W1145Y,0.92 ± 0.03
same,IC50,W1145Y,870 ± 30 nM

# From paper PMC11303713, “Allosteric inhibition of CFTR gating by CFTRinh-172 binding in the pore” (Nature Communications, 2024)
